From paper PMC9092348, “Cytotoxicity of Alizarine versus Tetrabromocathecol Cyclometalated Pt(II) Theranostic Agents: A Combined Experimental and Computational Investigation” (Inorganic Chemistry, 2022)
Where two headings read alike, the source gives them in different places. Marks after values point to notes of the source that are not given here.

Legend:
MDA-MB-231 cell line = test: Intracellular Pt(II) content by ICP-MS; type: cell-based, human; settings: 6 h, Figure 6A
Description: First, 200,000 cells/well were seeded in complete medium in a 12-well tray. […] These concentrations correspond to IC50 and IC50/2 of each compound according to our previous work aimed at analyzing the cytotoxic performance of these Pt(II) complexes in the MDA.MB.231 cell line.[13] […] An equal percentage of DMSO was added to control samples. Cells were thus washed two times with cold PBS and lysed with 200 μL of a homemade lysis buffer (Tris 50 mM pH 7, NaCl 150 mM, NP40 1% v/v, protease, and phosphatase inhibitors 1% v/v) for 30 min at 4 °C. The intracellular Pt(II) amount was quantified through ICP-MS (BRUKER aurora M90 ICP-MS, MA, USA), and data were normalized to the total protein content evaluated via bicinchoninic acid assay.
(A and C) Cells were seeded in complete medium (400,000 cells/well); the day after old media were discarded and cells were incubated for 6 h with media-containing compounds at the indicated concentrations, then intracellular protein were extracted, and intracellular ^195Pt was evaluated as ng ^195Pt over protein concentration (A) and further normalized vs the compounds’ working concentrations provided (C). Cisplatin was used as the positive control. An equal amount of DMSO was supplied in each experimental condition. Data are presented as mean ± SD of three different experiments; when invisible, the error bar is included into the bar line. […]

[1] = Experimental measurement of LogPow by RP-HPLC; type: physicochemical; settings: for logPow^exp: RP-HPLC, water/methanol 80/20, 25 °C; for logPow (approximate): theoretical and experimental values in agreement
Description: Reverse phase high performance liquid chromatography (RP-HPLC) analysis was performed to correlate the hydrophobicity of the complexes with their retention time.

[2] = Stability in solution followed by absorption spectra over time; type: physicochemical; settings: for fate in aqueous environment (aquation): DMSO/buffer 0.5% v/v pH 7.4, within 24 h, spectra supported by TD-DFT; for solubility in aqueous medium: inferred from reduction of optical density over time
Description: Spectrofluorimetric-grade solvents were used for the photophysical investigations. The buffer solution (pH 7.4) was prepared by dissolving one phosphate buffer saline table in 200 mL of water. Compounds 1–3 were dissolved in DMSO and then diluted to reach a final concentration of 1 × 10^–5 M in DMSO as well as DMSO/buffer 0.5% v/v. A PerkinElmer Lambda 900 spectrophotometer was employed to obtain the UV–visible absorption spectra, using 10 mm path-length quartz cuvettes.
The photophysical properties of 1–3 in DMSO have been previously discussed.[13],[35] In order to investigate the tendency of the Pt(II) complexes to undergo hydrolysis reactions giving the corresponding aqua-complexes, their stability in aqueous solution was monitored spectrophotometrically, acquiring the absorption profiles over time (t = 0, 3, 6, and 24 h). In particular, absorption spectra were registered by dissolving 1–3 in DMSO then diluted in buffer solution (DMSO 0.5% v/v). Moreover, in order to follow a possible aquation reaction with a slower kinetics, absorption spectra were recorded dissolving 1–3 in DMSO containing a low water content, by using a nonanhydrous spectroscopic-grade solvent.

Calf Thymus DNA (CT-DNA) = test: DNA binding experiment: UV–vis absorption with CT-DNA; settings: complex 50 μM, PBS pH 7.4, increasing CT-DNA
Description: In a quartz cuvette (path length 1 cm), the UV–vis spectra were recorded of a PBS buffer solution (pH 7.4)-containing complex (1, 2, or 3, 50 μM, 0.5% DMF). The UV–vis absorption spectra were successively recorded following each addition of aliquots of Calf Thymus DNA (CT-DNA, 50 μM) after an equilibration time of 1 h.[32],[33]

[3] = test system: DNA of MDA-MB-231 cell line; test: DNA-bound Pt(II) by ICP-MS; type: cell-based, human
Description: First, 200,000 cells/well were seeded in the complete medium in a 12-well tray. The day after, the old media were discarded, and the cells were challenged with compound-containing media for 6 h (CisPt: 30 and 60 μM; 1: 25 and 50 μM; 2: 1 and 2 μM; 3: 50 and 100 μM). An equal percentage of DMSO was added to control samples. The cells were thus washed two times with cold phosphate buffered saline (PBS) and digested with 700 μL of a homemade digest buffer (Tris 50 mM pH 8, NaCl 100 mM, EDTA 100 mM, and SDS 1%). The suspensions were moved to vials, and 400 μL of NaCl-saturated solution was added to them. The suspensions were thus vortexed and centrifuged at 12,000 rpm for 5 min. The supernatants were retrieved, added with 500 μL of 2-propanol, vortexed, and centrifuged at 12,000 rpm for 15 min to let DNA precipitate. […] DNA-bound Pt(II) was quantified through inductively coupled plasma-mass spectrometry (ICP-MS), and data were normalized to DNA content quantified with NanoDrop Site.
(A and C) Cells were seeded in complete medium (400,000 cells/well); the day after old media were discarded and cells were incubated for 6 h with media-containing compounds at the indicated concentrations, then intracellular protein were extracted, and intracellular ^195Pt was evaluated as ng ^195Pt over protein concentration (A) and further normalized vs the compounds’ working concentrations provided (C). […]

[4] = test system: human triple-negative breast cancer cell line MDA-MB-231; set-up: method as in doi:10.1002/aoc.5455; settings: cited from earlier work
[5] = set-up: method as in PMID 21450275; settings: cited from earlier work

| Structure (SMILES) | cytosolic localization (intracellular Pt) (MDA-MB-231 cell line; compared to cisplatin and the other compounds) | logPow^exp [1] | logPow (approximate) [1] | fate in aqueous environment (aquation) [2] | UV–vis spectral change on addition of CT-DNA (Calf Thymus DNA (CT-DNA)) | accumulation of platinum in the DNA, corrected for working concentration ([3]; 2 μM 1 compared to cisplatin 60 and 150 μM 2, 6 h, Figure 6D) | IC50 [4] | intracellular protein-bound Pt compared to the highest cisplatin dose (MDA-MB-231 cell line; highest tested concentration) | solubility in aqueous medium [2] | increase in DNA-bound ^195Pt compared to cisplatin 60 μM ([3]; highest tested concentration, 6 h, Figure 6B) | chromatographic logP [1] | logPow^exp [5] |
| --- | --- | --- | --- | --- | --- | --- | --- | --- | --- | --- | --- | --- |
| CCCC[N+](CCCC)(CCCC)CCCC.O=C1c2ccccc2C(=O)c2c1ccc1c2[O][Pt-]([c]2ccccc2-c2ccccn2)[O]1 (stereo not shown) [Complex 1, NBu4[(PhPy)Pt(Aliz)]] | barely localizes into cytosol | 3.33 | around 3 | complete detachment of the (O^O) ligand | decrease of the band at 545 nm | 10 fold | 1.9 ± 1.6 µM | – | – | – | – | – |
| Brc1c(Br)c(Br)c2c(c1Br)[O][Pt-]([c]1ccccc1-c1ccccn1)[O]2.CCCC[N+](CCCC)(CCCC)CCCC [Complex 2, NBu4[(PhPy)Pt(BrCat)]] | – | 4.53 | ~4.5 | converted to the corresponding mono-aquo complexes | decrease of the band at 545 nm | – | 52.8 ± 3.9 µM | 3 fold | poor solubility | 1.6 fold | – | – |
| N.N.O=C1c2ccccc2C(=O)c2c1ccc1c2[O][Pt][O]1 [Complex 3, [(NH3)2Pt(Aliz)]] | – | 0.47 | – | converted to the corresponding mono-aquo complexes | decrease of the band at 545 nm | – | 127 ± 2.7 µM | – | poor solubility | – | – | – |
| O=C1c2ccccc2C(=O)c2c1ccc(O)c2O [alizarine] | – | – | – | – | – | – | – | – | – | – | 1.87 | – |
| N.N.O=C([O-])C1(C(=O)[O-])CCC1.[Pt+2] [carboplatin] | – | – | – | – | – | – | – | – | – | – | – | -2.30 ^a |
